Measurements reported in patent publication US12486489B2, “Culture medium for testing drug resistance of H.pylori as well as preparation method and use thereof” (priority 2022, dated 2025).
Where two headings read alike, the source gives them in different places.

What was measured:
H. pylori [1] = test: MIC of laboratory H. pylori strains by micro dilution method; assay type: cell-based; settings: Helicobacter pylori
Experimental: (3) Preparation of bacterial solution: H. pylori grown in logarithmic phase on a solid plate is taken, BHI culture medium is used to prepare a bacterial suspension. The concentration of the bacterial solution is adjusted to 1×10^8 CFU/mL (OD600 is 0.3), diluted 10 times, 100 times, and 1000 times to implement a final concentration of […], for the subsequent use.
(4) Inoculation of bacterial solution: 10 μL of the above bacterial solution for the subsequent use is taken and added to wells the 1-10-th and the 12-th well (bacterial working concentration is 1×10^6 CFU/mL), the 11-th well serves as a non-bacterial control and only sterile water is added. The wells are cultivated for 72 hours to determine the results.

H. pylori [2] = test: Verification of resistance breakpoint: growth of laboratory strains on Columbia solid culture medium with added antibiotics, 72 hours; assay type: cell-based, Helicobacter pylori
Experimental: The plates are cooled and inverted for approximately 10 mL/piece, marked properly for the subsequent use.
(2) Preparation of bacterial solution: H. pylori grown in logarithmic phase on a solid plate is taken to prepare a bacterial suspension by using BHI. The concentration OD600 is adjusted to 0.3 (1×10^8 CFU/mL), diluted 10 times for the subsequent use.
(3) Inoculation of bacterial solution: 10 μL of bacterial solution is taken and added to Columbia culture medium and the results are determined after cultivating for 72 hours.
(4) Result determination: the minimum drug concentration for no growth of bacteria on the plate is the minimum inhibitory concentration of the bacteria against the drug.

[3] = system: clinical H. pylori strain; test: MIC of clinical H. pylori strains by micro dilution method; assay type: cell-based; settings: Helicobacter pylori, 72 h, approximately 1.0×10^6 CFU/mL per well, 72 hours, read-out: MIC
Experimental: The characteristic culture media (A, B, C, D, E) are cultivated at a constant temperature of 37° C. for 36 hours in a three gas incubator. The characteristic culture media are removed and placed in a natural environment for 30 minutes to observe whether there are discolorations at the point of the culture medium where the specimen is dropped in. […] Another 100 μL of the specimen is taken and coated on Columbia solid culture medium and cultivated in a three gas incubator at a constant temperature of 37° C. for 3 days to 5 days. The number of colonies on the plate is counted to determine the initial inoculation amount. The micro dilution method is adopted to test the MIC of clinical specimen H. pylori, the test is meaningful only when there is no bacterial growth in the negative control well without bacteria and there is bacterial growth in the positive well with bacteria but without antibiotics.
H. pylori single colony grown on Colombian culture medium is taken (which is confirmed as H. pylori by urease, oxidase, catalase, and PCR testing of CagA gene, as illustrated in FIG. 13) and the bacteria are increased. During the preparation of MIC plates and bacterial solution, H. pylori with logarithmic growth phase is taken to prepare a bacterial suspension by using BHI. The concentration OD600 is adjusted to 0.3 (1×10^8 CFU/mL, diluted 10 times, 10 μL is taken and added to wells 1-8 (with a bacterial solution concentration of approximately 1.0×10^6 CFU/mL per well, cultivated for 72 hours to determine the results.

C[C@H]1COc2c(N3CCN(C)CC3)c(F)cc3c(=O)c(C(=O)O)cn1c23 [Levofloxacin, levofloxacin]
MIC (H. pylori [1]; read-out: minimum inhibitory concentration (MIC), strain 159, bacterial count 10^4 CFU/mL): 0.5 µg/mL | MIC (H. pylori [1]; read-out: minimum inhibitory concentration (MIC), strain 159, bacterial count 10^6 CFU/mL (first line of the strain)): 2 µg/mL | MIC (H. pylori [1]; read-out: minimum inhibitory concentration (MIC), strain 159, bacterial count 10^6 CFU/mL (second line of the strain)): 1 µg/mL | MIC (H. pylori [1]; read-out: minimum inhibitory concentration (MIC), strain 161, bacterial count 10^4 CFU/mL): 1 µg/mL | MIC (H. pylori [1]; read-out: minimum inhibitory concentration (MIC), strain 161, bacterial count 10^6 CFU/mL (first line of the strain)): 2 µg/mL | MIC (H. pylori [1]; read-out: minimum inhibitory concentration (MIC), strain 161, bacterial count 10^6 CFU/mL (second line of the strain)): 2 µg/mL | MIC (H. pylori [1]; read-out: minimum inhibitory concentration (MIC), strain 162, bacterial count 10^4 CFU/mL): 2 µg/mL | MIC (H. pylori [1]; read-out: minimum inhibitory concentration (MIC), strain 162, bacterial count 10^6 CFU/mL (first line of the strain)): 8 µg/mL | MIC (H. pylori [1]; read-out: minimum inhibitory concentration (MIC), strain 162, bacterial count 10^6 CFU/mL (second line of the strain)): 4 µg/mL | MIC (H. pylori [1]; read-out: minimum inhibitory concentration (MIC), strain 163, bacterial count 10^4 CFU/mL): 2 µg/mL | MIC (H. pylori [1]; read-out: minimum inhibitory concentration (MIC), strain 163, bacterial count 10^6 CFU/mL (first line of the strain)): 16 µg/mL | MIC (H. pylori [1]; read-out: minimum inhibitory concentration (MIC), strain 163, bacterial count 10^6 CFU/mL (second line of the strain)): 4 µg/mL | MIC (H. pylori [1]; read-out: minimum inhibitory concentration (MIC), strain 286, bacterial count 10^4 CFU/mL): 0.5 µg/mL | MIC (H. pylori [1]; read-out: minimum inhibitory concentration (MIC), strain 286, bacterial count 10^6 CFU/mL (first line of the strain)): 1 µg/mL | MIC (H. pylori [1]; read-out: minimum inhibitory concentration (MIC), strain 286, bacterial count 10^6 CFU/mL (second line of the strain)): 0.5 µg/mL | MIC (H. pylori [1]; read-out: minimum inhibitory concentration (MIC), strain 287, bacterial count 10^4 CFU/mL): 1 µg/mL | MIC (H. pylori [1]; read-out: minimum inhibitory concentration (MIC), strain 287, bacterial count 10^6 CFU/mL (first line of the strain)): 4 µg/mL | MIC (H. pylori [1]; read-out: minimum inhibitory concentration (MIC), strain 287, bacterial count 10^6 CFU/mL (second line of the strain)): 2 µg/mL | MIC (H. pylori [1]; read-out: minimum inhibitory concentration (MIC), strain 289, bacterial count 10^4 CFU/mL): 2 µg/mL | MIC (H. pylori [1]; read-out: minimum inhibitory concentration (MIC), strain 289, bacterial count 10^6 CFU/mL (first line of the strain)): 8 µg/mL | MIC (H. pylori [1]; read-out: minimum inhibitory concentration (MIC), strain 289, bacterial count 10^6 CFU/mL (second line of the strain)): 4 µg/mL | MIC (H. pylori [1]; read-out: minimum inhibitory concentration (MIC), strain 290, bacterial count 10^4 CFU/mL): 16 µg/mL | MIC (H. pylori [1]; read-out: minimum inhibitory concentration (MIC), strain 290, bacterial count 10^6 CFU/mL (first line of the strain)): 32 µg/mL | MIC (H. pylori [1]; read-out: minimum inhibitory concentration (MIC), strain 290, bacterial count 10^6 CFU/mL (second line of the strain)): 32 µg/mL | MIC (H. pylori [1]; resistant strains 159, 161, 162, 163, 286, 287, 289, and 290, bacterial count 1×10^6 CFU/mL, read-out: MICs): 0.5 to 32 µg/mL | MIC (H. pylori [1]; strain G27, bacterial count 10^4 CFU/mL, read-out: minimum inhibitory concentration (MIC)): 0.0312 µg/mL | MIC (H. pylori [1]; strain G27, bacterial count 10^6 CFU/mL (first line of the strain), read-out: minimum inhibitory concentration (MIC)): 0.125 µg/mL | MIC (H. pylori [1]; strain G27, bacterial count 10^6 CFU/mL (second line of the strain), read-out: minimum inhibitory concentration (MIC)): 0.0625 µg/mL | optimal concentration for adding antibiotics (H. pylori [2]; conclusion of breakpoint verification): 0.5 µg/mL | growth of bacterial (H. pylori [2]; strain 159, antibiotic 0.25 μg/mL): + | growth of bacterial (H. pylori [2]; strain 159, antibiotic 0.5 μg/mL): + | growth of bacterial (H. pylori [2]; strain 159, antibiotic 1 μg/mL): − | growth of bacterial (H. pylori [2]; strain 161, antibiotic 0.25 μg/mL): + | growth of bacterial (H. pylori [2]; strain 161, antibiotic 0.5 μg/mL): + | growth of bacterial (H. pylori [2]; strain 161, antibiotic 1 μg/mL): − | growth of bacterial (H. pylori [2]; strain 162, antibiotic 0.25 μg/mL): + | growth of bacterial (H. pylori [2]; strain 162, antibiotic 0.5 μg/mL): + | growth of bacterial (H. pylori [2]; strain 162, antibiotic 1 μg/mL): − | growth of bacterial (H. pylori [2]; strain 163, antibiotic 0.25 μg/mL): + | growth of bacterial (H. pylori [2]; strain 163, antibiotic 0.5 μg/mL): + | growth of bacterial (H. pylori [2]; strain 163, antibiotic 1 μg/mL): − | growth of bacterial (H. pylori [2]; strain 286, antibiotic 0.25 μg/mL): + | growth of bacterial (H. pylori [2]; strain 286, antibiotic 0.5 μg/mL): + | growth of bacterial (H. pylori [2]; strain 286, antibiotic 1 μg/mL): − | growth of bacterial (H. pylori [2]; strain 287, antibiotic 0.25 μg/mL): + | growth of bacterial (H. pylori [2]; strain 287, antibiotic 0.5 μg/mL): + | growth of bacterial (H. pylori [2]; strain 287, antibiotic 1 μg/mL): − | growth of bacterial (H. pylori [2]; strain 289, antibiotic 0.25 μg/mL): + | growth of bacterial (H. pylori [2]; strain 289, antibiotic 0.5 μg/mL): + | growth of bacterial (H. pylori [2]; strain 289, antibiotic 1 μg/mL): + | growth of bacterial (H. pylori [2]; strain 290, antibiotic 0.25 μg/mL): + | growth of bacterial (H. pylori [2]; strain 290, antibiotic 0.5 μg/mL): + | growth of bacterial (H. pylori [2]; strain 290, antibiotic 1 μg/mL): + | growth of bacterial (H. pylori [2]; strain 26695, antibiotic 0.25 μg/mL): − | growth of bacterial (H. pylori [2]; strain 26695, antibiotic 0.5 μg/mL): − | growth of bacterial (H. pylori [2]; strain 26695, antibiotic 1 μg/mL): − | growth of bacterial (H. pylori [2]; strain G27, antibiotic 0.25 μg/mL): + | growth of bacterial (H. pylori [2]; strain G27, antibiotic 0.5 μg/mL): − | growth of bacterial (H. pylori [2]; strain G27, antibiotic 1 μg/mL): − | MIC ([3]; clinical strain FY-31): 16 µg/mL | MIC ([3]; clinical strain FY-43): 1 µg/mL | MIC ([3]; clinical strain FY-47): 0.5 µg/mL | MIC ([3]; clinical strain FY-52): 0.25 µg/mL
